Data reported in publication PMC6563049, “Radiosynthesis of (R,S)‐[^18F]GE387: A Potential PET Radiotracer for Imaging Translocator Protein 18 kDa (TSPO) with Low Binding Sensitivity to the Human Gene Polymorphism rs6971” (Chemmedchem, 2019).
Like-named read-outs stand apart in the source and are kept apart here. Each block holds one compound with its values, some of them ahead of it.

Columns and labels:
[1] = test system: TSPO A147T; experiment: Radioligand ([^3H]1) displacement binding on membranes of HEK cells stably transfected with A147T TSPO; design: species or system human; conditions: for Ratio LAB/HAB: Ki at A147T TSPO / Ki at wild-type TSPO
Method: (§1) Binding affinities were measured as per our published protocol.21 Briefly, an Ultra‐Turrax homogeniser was used to prepare membranes from HEK cells stably transfected with wild‐type and A147T TSPO. […] Reactions were terminated by filtration through a 96‐well glass‐fibre filter plate (Millipore), and washed eight times with ice‐cold 50 mM Tris⋅HCl. […] Data were analysed using GraphPad Prism 6.0, and a four‐parameter nonlinear regression curve fit was used to calculate K i values. Data are expressed as the mean±SEM from at least three independent experiments.

[2] = In vivo PET imaging of the brain in healthy rats; conditions: healthy male Wistar rats, i.v. tracer injection, 60 min acquisition, n=2
Method: The time–activity curve indicates distribution of radioactivity in the brain, albeit in a modest amount as the investigated animals were healthy.
Male Wistar rats (n=2; weight: 230 and 302 g) were obtained from Charles River Laboratories, UK. The rats were housed in Techniplast 2000P IVC cages on a layer of Aspen bedding in a room with constant temperature (21±2 °C) and fixed 12 h light–dark regime (lights on at 7:00 am). Food and water were available ad libitum. After arrival, the rats were allowed to acclimatise for at least seven days. This research was regulated under the Animals (Scientific Procedures) Act 1986 Amendment Regulations 2012 following ethical review by the University of Cambridge Animal Welfare and Ethical Review Body (AWERB).
Prior to scanning, the animals were anaesthetised using isofluorane at a concentration of 5 % in O2, and anaesthesia was maintained at 1.5–2.5 % isofluorane in O2. The femoral vein was cannulated for tracer injection. […]
Three‐dimensional regions of interest (ROIs) were drawn over the whole brain on an MRI template using PMOD software (version 3.2; PMOD technologies, Zurich, Switzerland). […] The results were expressed as dimensionless standardised uptake values (SUV=[(tissue activity)×(body weight)]/injected dose). SUVs were calculated assuming a specific gravity of 1 g mL^−1 for brain tissue.

[3] = biological target: rat heart TSPO; design: method as in earlier work; conditions: read-out: affinity, rat heart TSPO assay; cited from earlier work
[4] = biological target: T1, TSPO A147T (Homo sapiens, UniProt P30536); experiment: Radioligand ([^3H]1) displacement binding on membranes of HEK cells stably transfected with A147T TSPO
T1 construct: expressed in transfected cells; host or cells: HEK cells, stably transfected; membranes
Method: as §1

[5] = biological target: T2, human TSPO wild‐type (Homo sapiens, UniProt P30536); experiment: Radioligand ([^3H]1) displacement binding on membranes of HEK cells stably transfected with wild-type TSPO; conditions: HEK cell membranes, [^3H]1 10 nM, 4 °C, 90 min; mean±SEM, n=3; read-out: Ki (nM) at WT (Ala/Ala) HAB
T2 construct: expressed in transfected cells; host or cells: HEK cells, stably transfected; membranes
Method: Binding affinities were measured as per our published protocol.21 Briefly, an Ultra‐Turrax homogeniser was used to prepare membranes from HEK cells stably transfected with wild‐type and A147T TSPO. […] Reactions were terminated by filtration through a 96‐well glass‐fibre filter plate (Millipore), and washed eight times with ice‐cold 50 mM Tris⋅HCl. Microscint 0 was added to the dry filters, and radioactivity read in a Microbeta^2 2450 Microplate Counter (PerkinElmer). Data were analysed using GraphPad Prism 6.0, and a four‐parameter nonlinear regression curve fit was used to calculate K i values. Data are expressed as the mean±SEM from at least three independent experiments.

[6] = design: method as in PMID 26697963, PMID 26551697, PMID 29114179; conditions: cited from earlier work
[7] = test system: TSPO; conditions: cited from earlier work
[8] = test system: TSPO A147T; design: method as in PMID 30108706; conditions: cited from earlier work
[9] = test system: TSPO; design: method as in PMID 22244939; conditions: rats; cited from earlier work

T2 sequence (P30536 whole entry T147A): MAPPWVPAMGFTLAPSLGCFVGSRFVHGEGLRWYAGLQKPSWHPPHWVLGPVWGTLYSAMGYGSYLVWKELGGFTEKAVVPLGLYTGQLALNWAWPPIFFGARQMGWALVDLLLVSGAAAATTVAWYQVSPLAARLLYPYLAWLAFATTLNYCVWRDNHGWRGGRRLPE
T1 sequence (P30536 whole entry, stated change not applied): as the sequence (P30536 whole entry T147A) above, with A147T counted along it

SMILES: CCN(Cc1ccccc1)C(=O)C1CCCc2c1c1c(OC)cccc1n2CCF (racemic) [compound 6, N ‐Benzyl‐N‐ethyl‐9‐(2‐fluoroethyl)‐5‐methoxy‐2,3,4,9‐tetrahydro‐1H‐carbazole‐4‐carboxamide]
- sensitivity to the human gene polymorphism rs6971 ([1]; conclusion from wild-type versus A147T binding): low sensitivity

- entry of radioactivity into the brain (PET) [2]: enters the brain
SMILES: CCN(Cc1ccccc1)C(=O)C1CCCc2c1c1c(OC)cccc1n2CC[18F] (racemic) [racemic [^18F]6]

SMILES: CCN(Cc1ccccc1)C(=O)[C@@H]1CCCc2c1c1c(OC)cccc1n2CCF [(R)-6, N ‐Benzyl‐N‐ethyl‐9‐(2‐fluoroethyl)‐5‐methoxy‐2,3,4,9‐tetrahydro‐1H‐carbazole‐4‐carboxamide]
- Ki [3]: 22 nM

SMILES: CCN(CC)C(=O)[C@H]1CCCc2c1c1c(OC)cccc1n2CCF [(S)-5]
- Ratio LAB/HAB [1]: 5.1
- Ki ([4]; HEK cell membranes, [^3H]1 10 nM, 4 °C, 90 min, mean±SEM, n=3, read-out: Ki (nM) at Ala147Thr LAB): 58.3 ± 6.4 nM
- Ki [5]: 11.3 ± 0.6 nM

SMILES: CCN(Cc1ccccc1)C(=O)[C@H]1CCCc2c1c1c(OC)cccc1n2CCF [(S)-6, N ‐Benzyl‐N‐ethyl‐9‐(2‐fluoroethyl)‐5‐methoxy‐2,3,4,9‐tetrahydro‐1H‐carbazole‐4‐carboxamide]
- Ratio LAB/HAB [1]: 1.3
- Ki [4]: 47.3 ± 7 nM
- Ki [5]: 36.3 ± 6.9 nM
- Ki [3]: 1.04 nM

SMILES: CC[C@@H](C)N(C)C(=O)c1cc2ccccc2c(-c2ccccc2Cl)n1 [[^11C]1, R‐1‐(2‐chlorophenyl)‐N‐methyl‐N‐(1‐methylpropyl)‐3‐isoquinoline carboxamide]
- brain permeability [6]: low brain permeability

SMILES: CC[C@@H](C)N(C)C(=O)c1cc2ccccc2c(-c2ccccc2Cl)n1 [[^11C]1] [R‐1‐(2‐chlorophenyl)‐N‐methyl‐N‐(1‐methylpropyl)‐3‐isoquinoline carboxamide]
- affinity for TSPO ([7]; selective antagonist of TSPO): 9.3 nM

SMILES: CCN(CC)C(=O)C1CCCc2c1c1c(OC)cccc1n2CC[18F] (stereo not shown) [[^18F]5]
- affinity for TSPO (in words) [7]: good affinity
- binding affinity ratio LABs/HABs [8]: 5.1
- brain uptake [9]: good brain uptake
- specific binding [9]: high specific binding
